The test system of series [1] is mice. Put plainly: maximum electroshock-induced seizure (MES) assay in mice. In kind it is in vivo, male Swiss/Webster mice. To be noted: Mus musculus, iv, drug applied i.v. as an aqueous basic solution, read-out: ED50 as an anticonvulsant in a MES experiment in mice. The source says:
The anticonvulsant activity of the glycine antagonists may be assessed in the maximum electroshock-induced seizure (MES) assay in mice. Electroshock was applied to male Swiss/Webster mice (20-30 g, Simonsen) through corneal electrodes (Swinyard, E. A., in Anticonvulsant Drugs, Mercier, J., ed., Pergamon Press, Oxford (1973), pp. 47-65). The seizure stimulus parameters were: 50 mA, 60 Hz, rectangular pulse, width 0.8 msec, duration 200 msec. Tonic hind limb extension observed after application of the electrical stimulus was recorded as occurrence of seizure. The drug was applied i.v. as an aqueous basic solution.

Series [2] has as its target T1, NMDA receptor glycine site (Rattus norvegicus, UniProt P35439).
T1 construct: from tissue; host or cells: rat brain membranes
Put plainly: inhibition of [3H]DCKA binding to rat brain membranes. The procedure:
(§1) The affinity of the compounds for the NMDA receptor glycine site also was measured by inhibition of [^3 H]DCKA binding to rat brain membranes. See, Canton, T. et al., J. Pharm. Pharmacol. 44:812-816 (1992).

In series [3] the test system is glycine binding site of the NMDA receptor. The conditions noted are these: cited from earlier work.
For series [4] the following is noted: in vivo; cited from earlier work.
In series [5] the target is T2, glycine/NMDA receptor (Rattus norvegicus, UniProt P35439).
T2 construct: rat brain membrane homogenates that are enriched in NMDA receptors; tissue Pel-Freez, Rogers, Ark; host or cells: frozen rat brain, membrane homogenate
Put plainly: affinity at the glycine/NMDA receptor. It is filed as binding. As to the method:
as §1
The glycine antagonist potency in vitro may be determined using a 1 μM glycine-stimulated [^3 H]-MK801 binding assay. This assay takes advantage of the fact that the binding of [^3 H]-MK801 to the PCP receptor inside the pore of the NMDA channel is dependent on the presence of both glutamate and glycine. […]
The assay is conducted using rat brain membrane homogenates that are enriched in NMDA receptors. […] The final pellet is suspended in three volumes of 50 mM HEPES, pH 7.4 and the protein concentration is determined with a standard dye-binding protein assay (Bio-Rad, Richmond, Calif.). […]
On the day of the assay, the previously prepared membranes are thawed and 5 mM Tris/HCl buffer, pH 7.4, is added to yield a final protein concentration of 0.156 mg/mL. […] To determine the effect of 1 μM glycine on the binding of [^3 H]-MK801, bound radioactivity in the presence of 10 μM glutamate alone (final concentration) is subtracted from the bound radioactivity in the presence of both 10 μM glutamate and 1 μM glycine (final concentration). […]

Series [6] has as its target PCP receptor. To be noted: Wong et al., PNAS 83:7104-7108 (1986); cited from earlier work.
Series [7] deals with pigeons. To be noted: cited from earlier work.
Series [8] relates to rodents. To be noted: rodents / animal models; cited from earlier work.
The nature of series [9]: log P (literature). To be noted: from benzene to the named substance. In kind it is physicochemical.

SMILES strings stand for the structures.

On to `N#Cc1c(=O)[nH]c2cc(Cl)c(Cl)cc2[n+]1[O-]` [3-Cyano-6,7-dichloro-1,2-dihydroquinoxaline-2-one-4-oxide], for which, in [1], the ED50 was found to be 5 mg/kg. In addition, in series [2], the 50% inhibitory concentration (IC50) came out at 135 nM. Turning to `O=c1[nH]c2ccccc2c(O)c1[N+](=O)[O-]` [4-hydroxy-3-nitro-1,2-dihydroquinolin-2-one], the “binding affinity for the glycine site (in words)” value (“binding affinity” for short) in series [3] is reported as “high binding to the glycine receptor”. With `O=C(O)c1cc(O)c2c(Cl)cc(Cl)cc2n1` [5,7-dichlorokynurenic acid], the “binding affinity” value in [3] is “relatively high receptor binding affinity in vitro”. Also, the blood/brain barrier penetration result in series [4] is on record as “cannot penetrate the blood/brain barrier”. In series [5], `Oc1nc2cc(Cl)cnc2c(O)c1-c1cccc(Oc2ccccc2)c1` [5-Aza-7-chloro-4-hydroxy-3-(m-phenoxyphenyl)quinolin-2-one] came in with a Ki of 5 nM. Moreover, the 50% effective dose (ED50) in series [1] came to 3 mg/kg. For the molecule `O=C(O)c1cc(O)c2ccc(Cl)cc2n1` [7-Cl-kynurenic acid], the “binding affinity” value in series [3] is “relatively high receptor binding affinity in vitro”. Further, in [4], the blood/brain barrier penetration entry is on record as “cannot penetrate the blood/brain barrier”. `NC1CCN(O)C1=O` (stereo not drawn) [HA-966]: the “binding affinity” value in series [3] was “partial agonist with micromolar affinity for the glycine binding site”. Besides, the blood/brain barrier penetration result in [4] is recorded as “sufficiently penetrates the blood/brain barrier”. As for `C[C@]12N[C@H](Cc3ccccc31)c1ccccc12` [MK-801], in series [6], the Kd was about 3 nM. As to `c1ccc(C2(N3CCCCC3)CCCCC2)cc1` [PCP, phencyclidine], the katalepsy in pigeons result in series [7] is reported as “characteristic katalepsy in pigeons”. For the same molecule, in series [8], the PCP-like behavioral effects result is “behavioral excitation (hyperlocomotion) in rodents”.

With `NCC(=O)O` [glycine], the Kd in series [3] (used in Cheng and Prusoff equation, read-out: known affinity for the glycine binding site of the NMDA receptor) was 100 nM.

`O=C(O)c1cc2ccccc2[nH]1` [indole-2-carboxylic acid]: the “binding affinity” value in [3] is “relatively high receptor binding affinity in vitro”. In [4], the blood/brain barrier penetration result was “cannot penetrate the blood/brain barrier”.

For `[O-][n+]1ccccc1` [pyridine N-oxide], the “difference in log P from benzene” value in series [9] was -3.84.

These data come from patent US5801183A, “Aza and aza (N-oxy) analogs of glycine/NMDA receptor antagonists” (priority 1995, dated 1998).
